Test results: patent publication US9102669B2, “Substituted piperidinyl-pyridazinyl derivatives useful as SCD 1 inhibitors” (Janssen Pharmaceutica NV, priority 2011, dated 2015)

Experiments:
[1] = 10-day diet-induced obese C57bl/6 mice study, body weight change; type: in vivo, mouse; set-up: unit not given here; conditions: DIO C57BL/6J mice, oral 30 mg/kg once a day, after 10 days of treatment
Method: Male DIO C57BL/6J mice from Taconic were maintained on high fat diet D12492 containing 60% kCal of mostly saturated fats (Research Diets Inc.) for 4 week from 6-week old. Test compounds were prepared in 0.5% hydroxypropyl methyl cellulose for oral dosing at 30 mg/kg once a day. After 10-days of treatment, body weight change was recorded.
Representative compounds of the present invention were tested according to the procedure as described above, with results as listed in Table 7, below. In the results presented below, * indicates a calculated p value <0.05 vs. vehicle-treated group.

[2] = 4 week Zucker fa/fa rat study, body weight; type: in vivo; conditions: Zucker fa/fa rats
Method: Male Zucker fa/fa rats were housed one rat per cage in a temperature-controlled room with 12-hour light/dark cycle. The rats were fed on regular rodent diet (Purina 5008) and allowed ad libitum access to water. The experiment was initiated at an age of 8-9 week, and at body weight of about 350 g. Test compound was prepared in 0.5% HPMC for dosing q.d at 1 mg/kg, 3 mg/kg and 10 mg/kg, as noted in the table of results below. Body weight, food intake and fed blood glucose were monitored weekly. On day 26, all rats were given with the last dose 1 hr prior to the necropsy.

Cn1cc(-c2ccc(N3CCC(N4CCc5ccc(F)cc54)CC3)nn2)cn1 [Compound #11, 6-fluoro-1-(1-(6-(1-methyl-1H-pyrazol-4-yl)pyridazin-3-yl)piperidin-4-yl)indoline]
body weight change [1]: −2.1 ± 0.3 * | Body Weight Day 1 ([2]; 1 mg/kg q.d.): 373 ± 7 grams | Body Weight Day 8 ([2]; 1 mg/kg q.d.): 404 ± 13 grams | Body Weight Day 15 ([2]; 1 mg/kg q.d.): 442 ± 12 grams | Body Weight Day 22 ([2]; 1 mg/kg q.d.): 482 ± 10 grams | Body Weight Day 26 ([2]; 1 mg/kg q.d.): 496 ± 10 grams | Body Weight Day 1 ([2]; 3 mg/kg q.d.): 372 ± 6 grams | Body Weight Day 8 ([2]; 3 mg/kg q.d.): 417 ± 7 grams | Body Weight Day 15 ([2]; 3 mg/kg q.d.): 452 ± 6 grams | Body Weight Day 22 ([2]; 3 mg/kg q.d.): 484 ± 6 grams | Body Weight Day 26 ([2]; 3 mg/kg q.d.): 498 ± 6 grams | Body Weight Day 1 ([2]; 10 mg/kg q.d.): 373 ± 5 grams | Body Weight Day 8 ([2]; 10 mg/kg q.d.): 402 ± 6 grams | Body Weight Day 15 ([2]; 10 mg/kg q.d.): 430 ± 7 grams | Body Weight Day 22 ([2]; 10 mg/kg q.d.): 445 ± 9 grams | Body Weight Day 26 ([2]; 10 mg/kg q.d.): 451 ± 9 grams
